Test results from US20100144708A1, “HETEROCYCLIC COMPOUNDS CONTAINING NITROGEN ATOMS OR PHARMACEUTICALLY ACCEPTABLE SALTS THEREOF, PROCESS FOR THE PREPARATION THEREOF AND PHARMACEUTICAL COMPOSITION COMPRISING THE SAME FOR TREATMENT OF CANCER” (Korea Research Instititute of Bioscience and Biotechnology, priority 2006, published 2010).

What was measured:
Type in all cases: cell-based, Human
ACHN (kidney cancer) = test: Test for inhibition of tumor cell growth (SRB), ACHN; conditions: 48 hours, SRB staining; for GI50: Homo sapiens, ACHN
Summary of the method: (§1)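 Cells seeded in RPMI 1640 with 5% FBS, exposed to compound (final […], units as printed) for 48 hours at 37° C with 5% CO2, including a time-zero plate. TCA-fixed, SRB-stained, absorbance at 540 nm as percent of control; GI50 is the 50% growth-inhibition concentration.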

PC-3 (prostate cancer) = test: Test for inhibition of tumor cell growth (SRB), PC-3; conditions: 48 hours, SRB staining; for GI50: Homo sapiens, read-out: GI50 PC-3 (prostate ancer)
Summary of the method: as §1

NUGC-3 (gastric cancer) = test: Test for inhibition of tumor cell growth (SRB), NUGC-3; conditions: 48 hours, SRB staining; for GI50: Homo sapiens, NUGC-3
Summary of the method: as §1

[1] = test system: MBA-MB-231 (breast cancer); test: Test for inhibition of tumor cell growth (SRB), MBA-MB-231; conditions: 48 hours, SRB staining; for GI50: Homo sapiens
Summary of the method: as §1

Structure (SMILES)	GI50 (ACHN (kidney cancer)) [µg/mL]	GI50 (PC-3 (prostate cancer)) [µg/mL]	GI50 (NUGC-3 (gastric cancer)) [µg/mL]	GI50 [1] [µg/mL]	GI50 ACHN (kidney cancer) (ACHN (kidney cancer)) [µg/mL]	GI50 PC-3 (prostate ancer) (PC-3 (prostate cancer)) [µg/mL]	GI50 NUGC-3 (gastric cancer) (NUGC-3 (gastric cancer)) [µg/mL]	GI50 MBA-MB-231 (breast cancer) [1] [µg/mL]
CCCCCCCCCS(=O)(=O)N1CC[N+](C)(CC)CC1 [Example 99, 1-ethyl-1-methyl-4-(nonane-1-sulfonyl)piperazin-1-ium iodide]	> 10	> 10	> 10	> 10				
CCCCCCCCCS(=O)(=O)N1CC[N+](CC)(Cc2ccccc2)CC1 [Example 100, 1-benzyl-1-ethyl-4-(nonane-1-sulfonyl)piperazin-1-ium bromide]	> 10	4.08	1.73	> 10				
C=CC[N+]1(CC)CCN(S(=O)(=O)CCCCCCCCC)CC1 [Example 101, 1-allyl-1-ethyl-4-(nonane-1-sulfonyl)piperazin-1-ium bromide]	> 10	2.34	3.28	> 10				
CCCCCCCCCS(=O)(=O)N1CC[N+](C)(C)CC1 [Example 102, 1,1-dimethyl-4-(nonane-1-sulfonyl)piperazin-1-ium iodide]	> 10	> 10	> 10	> 10				
CCCCCCCCCS(=O)(=O)N1CC[N+](C)(Cc2ccccc2)CC1 [Example 103, 1-benzyl-1-methyl-4-(nonane-1-sulfonyl)piperazin-1-ium bromide]	> 10	1.25	3.45	> 10				
CCCCCCCCCS(=O)(=O)N1CC[N+](C)(Cc2ccc(F)cc2)CC1 [Example 104, 1-(4-fluorobenzyl)-1-methyl-4-(nonane-1-sulfonyl)piperazin-1-ium bromide]	> 10	3.45	> 10	> 10				
CCCCCCCCCCS(=O)(=O)N1CC[N+](C)(Cc2cccc(C)c2)CC1 [Example 106, 4-(decane-1-sulfonyl)-1-methyl-1-(3-methylbenzyl)piperazin-1-ium bromide]	4.13	0.61	1.6	3.56				
CCCCCCCCCCS(=O)(=O)N1CC[N+](C)(Cc2ccc(C)cc2)CC1 [Example 107, 4-(decane-1-sulfonyl)-1-methyl-1-(4-methylbenzyl)piperazin-1-ium bromide]	> 10	1.05	2.72	> 10				
CCCCCCCCCCCCS(=O)(=O)N1CC[N+](C)(Cc2cccc(C)c2)CC1 [Example 108, 4-(dodecane-1-sulfonyl)-1-methyl-1-(3-methylbenzyl)piperazin-1-ium bromide]	1.42	0.45	0.65	1.19				
C=CC[N+]1(C)CCN(S(=O)(=O)CCCCCCCCCCC)CC1 [Example 112, 1-allyl-1-methyl-4-(undecane-1-sulfonyl)piperazin-1-ium bromide]	1.69	0.43	1.75	1.75				
CCCCCCCCCCCCCCS(=O)(=O)N1CC[N+](CC)(Cc2ccccc2)CC1 [Example 113, 1-benzyl-1-ethyl-4-(tetradecane-1-sulfonyl)piperazin-1-ium bromide]	1.05	0.41	1.22	1.23				
CCCCCCCCCCCCCCCCCCS(=O)(=O)N1CC[N+](CC)(Cc2ccc(C(C)(C)C)cc2)CC1 [Example 114, 1-(4-t-butylbenzyl)-1-ethyl-4-(octadecane-1-sulfonyl)piperazin-1-ium bromide]	2.32	2.01	3.16	2.24				
CCCCCCCCCCCCCCCCCCS(=O)(=O)N1CC[N+](C)(Cc2ccccc2)CC1 [Example 115, 1-benzyl-1-methyl-4-(octadecane-1-sulfonyl)piperazin-1-ium bromide]	2.01	0.48	1.07	0.91				
CCCCCCCCCCCCCCCC(=O)N1CCC[N+](C)(CC)CC1 (centres unmarked) [Example 116, 1-ethyl-1-methyl-4-palmitoyl-1,4-diazepan-1-ium iodide]	0.29	0.36	0.25	0.59				
CCCCCCCCCCCC(=O)N1CCC[N+](C)(C)CC1 [Example 117, 4-dodecanoyl-1,1-dimethyl-1,4-diazepan-1-ium iodide]	1.07	0.5	0.6	2.68				
CCCCCCCCCCCCCCCC(=O)N1CCC[N+](C)(Cc2ccc(F)cc2)CC1.[Br-] (centres unmarked) [Example 121, 1-(4-fluorobenzyl)-1-methyl-4-palmitoyl-1,4-diazepan-1-him bromide]					1.09	0.46	0.63	0.83

Second part, led by results:

GI50 (ACHN (kidney cancer)) [µg/mL]	GI50 (PC-3 (prostate cancer)) [µg/mL]	GI50 (NUGC-3 (gastric cancer)) [µg/mL]	GI50 [1] [µg/mL]	Structure (SMILES)	GI50 ACHN (kidney cancer) (ACHN (kidney cancer)) [µg/mL]	GI50 PC-3 (prostate ancer) (PC-3 (prostate cancer)) [µg/mL]	GI50 NUGC-3 (gastric cancer) (NUGC-3 (gastric cancer)) [µg/mL]	GI50 MBA-MB-231 (breast cancer) [1] [µg/mL]
2.18	0.78	0.87	3.84	C=CC[N+]1(C)CCCN(C(=O)CCCCCCCCCCC)CC1 (centres unmarked) [Example 118, 1-allyl-4-dodecanoyl-1-methyl-1,4-diazepan-1-ium bromide]				
1.48	0.57	0.36	2.48	CCCCCCCCCCCC(=O)N1CCC[N+](C)(Cc2ccc(OC)cc2)CC1 (centres unmarked) [Example 119, 4-dodecanoyl-1-(4-methoxybenzyl)-1-methyl-1,4-diazepan-1-ium chloride]				
0.74	0.75	0.2	1.44	C=CC[N+]1(C)CCCN(C(=O)CCCCCCCCCCCCCCC)CC1 (centres unmarked) [Example 120, 1-allyl-1-methyl-4-palmitoyl-1,4-diazepan-1-ium bromide]				
0.4	0.4	0.21	0.94	CCCCCCCCCCCCCCCC(=O)N1CCC[N+](C)(C)CC1 [Example 122, 4-hexadecanoyl-1,1-dimethyl-1,4-diazepan-1-ium iodide]				
0.49	0.36	0.08	0.98	CCCCCCCCCCCCCC(=O)N1CCC[N+](C)(C)CC1 [Example 123, 1,1-dimethyl-4-tetradecanoyl-1,4-diazepan-1-ium iodide]				
1	0.45	0.31	1.16	CCCCCCCCCCCCCC(=O)N1CCC[N+](C)(Cc2ccccc2)CC1 (centres unmarked) [Example 124, 1-benzyl-1-methyl-4-tetradecanoyl-1,4-diazepan-1-ium bromide]				
0.8	0.35	0.53	0.86	CCCCCCCCCCCCCCCC(=O)N1CCC[N+](C)(Cc2ccccc2)CC1 (centres unmarked) [Example 125, 1-benzyl-1-methyl-4-palmitoyl-1,4-diazepan-1-ium bromide]				
0.44	0.18	0.26	0.45	C=CC[N+]1(C)CCCN(C(=O)CCCCCCCCCCCCC)CC1 (centres unmarked) [Example 127, 1-allyl-1-methyl-4-tetradecanoyl-1,4-diazepan-1-ium bromide]				
0.82	0.18	0.46	0.71	CCCCCCCCCCCCCC(=O)N1CCC[N+](C)(Cc2cccc([N+](=O)[O-])c2)CC1 (centres unmarked) [Example 128, 1-methyl-1-(3-nitrobenzyl)-4-tetradecanoyl-1,4-diazepan-1-ium bromide]				
0.57	0.24	0.26	0.67	CCCCCCCCCCCCCCCCCC(=O)N1CCC[N+](C)(C)CC1 [Example 129, 1,1-dimethyl-4-stearoyl-1,4-diazepan-1-ium iodide]				
